Measured values taken from ChEMBL document CHEMBL1156433, “Multiple sequential steps involved in the binding of inhibitors to cytochrome P450 3A4” (J Biol Chem, 2007).
pKd: −log10 of the molar value. Peptide text beside a SMILES is read from it.

Target: Cytochrome P450 3A4 (Homo sapiens, UniProt P08684)
Assay: Binding affinity to recombinant CYP3A4 expressed in Escherichia coli assessed as spectral dissociation constant by spectrophotometric equilibrium binding titration method
Assay type: ADME
Settings: read-out: K

Cytochrome P450 3A4, sequence (P08684 whole entry): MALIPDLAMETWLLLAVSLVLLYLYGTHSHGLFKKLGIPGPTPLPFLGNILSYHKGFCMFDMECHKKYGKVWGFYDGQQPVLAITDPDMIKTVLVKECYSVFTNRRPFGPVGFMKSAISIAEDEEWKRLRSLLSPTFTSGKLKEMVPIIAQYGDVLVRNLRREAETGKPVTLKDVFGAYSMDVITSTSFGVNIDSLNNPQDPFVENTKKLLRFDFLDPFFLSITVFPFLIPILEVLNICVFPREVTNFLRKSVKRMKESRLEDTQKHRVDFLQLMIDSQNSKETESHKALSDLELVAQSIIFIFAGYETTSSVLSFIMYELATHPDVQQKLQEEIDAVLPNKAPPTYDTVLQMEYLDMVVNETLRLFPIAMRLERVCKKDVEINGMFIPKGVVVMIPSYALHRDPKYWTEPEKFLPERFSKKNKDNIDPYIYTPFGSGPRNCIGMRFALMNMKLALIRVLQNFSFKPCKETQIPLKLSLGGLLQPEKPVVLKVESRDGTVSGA

NC(=O)[C@@H]1CCCN1C(=O)[C@H](Cc1ccccc1)NC(=O)[C@@H]1CCCN1C(=O)[C@@H](N)Cc1ccc(O)cc1 [MORPHICEPTIN] (H-YPFP-NH2)
pKd: 2.11
